Data published in paper PMC9354082, “5-HT3 Receptor MX Helix Contributes to Receptor Function” (ACS Chemical Neuroscience, 2022).
Residue numbers refer to the chain shown, from its start.

Legend:
Test in all cases: Radioligand binding, transfected HEK293 cell membranes
Conditions in all cases: HEK cell membranes, n=4
[1] = target: T1, WT 5-HT3 receptor (Mus musculus, UniProt P23979)
T1 construct: expressed in transfected cells; host or cells: HEK293 cells (membranes)
T1 sequence (P23979 24-489): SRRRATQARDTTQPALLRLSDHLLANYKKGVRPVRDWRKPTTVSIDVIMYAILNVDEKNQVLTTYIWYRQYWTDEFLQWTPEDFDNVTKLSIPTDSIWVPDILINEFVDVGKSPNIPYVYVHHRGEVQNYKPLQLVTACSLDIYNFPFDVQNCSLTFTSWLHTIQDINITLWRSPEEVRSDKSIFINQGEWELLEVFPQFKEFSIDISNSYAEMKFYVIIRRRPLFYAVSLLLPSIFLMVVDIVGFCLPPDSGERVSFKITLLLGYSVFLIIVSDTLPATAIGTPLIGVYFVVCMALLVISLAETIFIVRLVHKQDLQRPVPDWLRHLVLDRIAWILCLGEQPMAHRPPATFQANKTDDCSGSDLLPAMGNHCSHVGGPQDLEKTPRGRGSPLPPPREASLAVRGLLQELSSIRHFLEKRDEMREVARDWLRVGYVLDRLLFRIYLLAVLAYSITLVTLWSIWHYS
Description: (§1) One method to explore this is to perform radiolabeled ligand binding to examine the parameters associated with the binding site.
(§2) This was undertaken as previously described.[23] Briefly, transfected HEK293 cell membranes were incubated in 0.5 ml of HEPES buffer containing the 5-HT3 receptor antagonist [^3H]GR65630 to label cell surface receptors. Nonspecific binding was determined using 1 μM quipazine. Data were analyzed by iterative curve fitting using Prism. Values are presented as mean ± SEM.

[2] = target: T2, H323A mutant 5-HT3 receptor (Mus musculus, UniProt P23979, H350A)
T2 construct: expressed in transfected cells; host or cells: HEK293 cells (membranes)
T2 sequence (P23979 24-489 H350A): T1 sequence (P23979 24-489) with H327A
Description: as §1, §2

[3] = target: T3, P318A mutant 5-HT3 receptor (Mus musculus, UniProt P23979, P345A)
T3 construct: expressed in transfected cells; host or cells: HEK293 cells (membranes)
T3 sequence (P23979 24-489 P345A): T1 sequence (P23979 24-489) with P322A
Description: as §1, §2

`Cc1[nH]cnc1CCC(=O)c1cn(C)c2ccccc12` [[^3H]GR65630] showed a Bmax [1] of 1.1 ± 0.4 pmol/mg protein, a Kd [1] of 0.25 ± 0.1 nM and a Bmax [2] of 1.0 ± 0.1 pmol/mg protein. For the same molecule, the Bmax [3] was 0.9 ± 0.2 pmol/mg protein.
